Assay results published in PubChem BioAssay (NCI).
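Grown in 96-well plates, cells were treated for 48 hours with each compound at five concentrations. Insufficient inhibition: endpoint recorded as highest concentration tested. GI50 = concentration required for 50% inhibition of growth. TGI is the concentration that stops growth completely.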

Experiments:
Test in all cases: growth of human tumour cells (NCI), 48 h
NCI-H522 lung = tested on: NCI-H522 lung
ACHN renal = tested on: ACHN renal
SN12C renal = tested on: SN12C renal
A549 NSCLC = tested on: A549 NSCLC
RXF 393 renal = tested on: RXF 393 renal
LXFL 529 NSCLC = tested on: LXFL 529 NSCLC
UACC-62 melanoma = tested on: UACC-62 melanoma
DMS 273 small cell lung = tested on: DMS 273 small cell lung
SK-MEL-5 melanoma = tested on: SK-MEL-5 melanoma
T-47D breast = tested on: T-47D breast

Row | SMILES | TGI (NCI-H522 lung) [µM] | TGI (ACHN renal) [µM] | TGI (SN12C renal) [µM] | TGI (A549 NSCLC) [µM] | TGI (RXF 393 renal) [µM] | TGI (LXFL 529 NSCLC) [µM] | TGI (UACC-62 melanoma) [µM] | TGI (DMS 273 small cell lung) [µM] | TGI (SK-MEL-5 melanoma) [µM] | GI50 (NCI-H522 lung) [µM] | GI50 (UACC-62 melanoma) [µM] | GI50 (ACHN renal) [µM] | GI50 (SN12C renal) [µM] | GI50 (A549 NSCLC) [µM] | GI50 (RXF 393 renal) [µM] | GI50 (DMS 273 small cell lung) [µM] | GI50 (LXFL 529 NSCLC) [µM] | TGI (T-47D breast) [µM] | GI50 (T-47D breast) [µM] | GI50 (SK-MEL-5 melanoma) [µM]
1 | CCCCCCCCCCCCCCCCc1c(C(=O)OC)nc(NC#N)[nH]c1=O | > 25 | > 25 | > 25 | > 25 | > 25 | > 25 |  |  |  |  |  |  |  |  |  |  |  |  |  | 
2 | C=CC12CCCCC1CC(C(=O)OC)=C(O)C2 (stereo not drawn) | > 100 | > 100 | > 100 | > 100 | > 100 | > 100 | > 100 | > 100 | > 100 |  |  |  |  |  |  |  |  |  |  | 
3 | N#CC(Sc1ccccc1)C(N)=O (stereo not drawn) | > 100 |  | > 100 | > 100 | > 100 | > 100 | > 100 | > 100 | > 100 |  |  |  |  |  |  |  |  |  |  | 
4 | CC1OC(n2cc(F)c(=O)[nH]c2=O)CCC1=O (stereo not drawn) | > 100 | > 100 | > 100 | > 100 | > 100 | > 100 | > 100 | > 100 | > 100 |  |  |  |  |  |  |  |  |  |  | 
5 | c1cc[c]([Ge]([O]c2cccc3cccnc23)([c]2ccccc2)[c]2ccccc2)cc1 | 3.74 | 20.8 | 16.5 | 21.7 | 5.49 | 5.27 | 16.4 | 12.4 |  | 1.9 | 4.6 | 8.83 | 4.52 | 5.34 | 1.88 | 3.46 | 2.31 |  |  | 
6 | O=CCCn1[nH]c(=O)ccc1=O |  | > 100 | > 100 | > 100 | > 100 |  | > 100 | > 100 | > 100 |  |  |  |  |  |  |  |  |  |  | 
7 | O=S1Nc2cccc(C(F)(F)F)c2S1 (stereo not drawn) | > 100 | > 100 | > 100 | > 100 | 73.7 | > 100 | > 100 | > 100 | > 100 |  |  |  |  |  |  |  |  |  |  | 
8 | O=CN/C=C/c1ccccc1 | > 100 | > 100 | > 100 | > 100 | > 100 | > 100 | > 100 | > 100 | > 100 |  |  |  |  |  |  |  |  |  |  | 
9 | C=CCCn1nc(-c2ccccc2)oc1=O | > 100 | > 100 | > 100 | > 100 | > 100 | > 100 | > 100 | > 100 | > 100 |  |  |  |  |  |  |  |  |  |  | 
10 | CC1(C)C(=O)/C=C\C(=O)C(C)(C)C2=CC=C(O2)C(C)(C)C(=O)C(Br)C(Br)C(=O)C(C)(C)C2=CC=C1O2 (stereo not drawn) | 59.6 | > 46.4 | > 100 | > 100 | > 83.8 | > 100 | 49.3 | > 100 | > 100 |  |  |  |  |  |  |  |  | > 100 |  | 
11 | O=C1CCCc2ccc([N+](=O)[O-])c(O)c21 | > 100 | > 100 | > 100 | > 100 | > 100 | > 100 | > 100 | > 100 | > 100 |  |  |  |  |  |  |  |  |  |  | 
12 | C[C@@H]1CC[C@@]2(C)OC(c3ccccc3)[C@H](CO)N2C1=O (stereo partly drawn) |  | > 100 | > 100 | > 100 | > 100 |  | > 100 | > 100 | > 100 |  |  |  |  |  |  |  |  |  |  | 
13 | COc1ccc2cc3c4cc(OC)c(OC)cc4ccn3c2c1 | > 100 | > 100 | > 100 | > 100 | > 100 | > 100 | > 100 | > 100 | > 100 |  |  |  |  |  |  |  |  |  |  | 
14 | O/N=C1/CCCC/C1=C\c1ccc(Cl)c(Cl)c1 |  | 71.8 | 42.3 | > 100 |  | 54.4 | > 100 | 63.1 | 35.6 |  |  |  |  |  |  |  |  |  |  | 
15 | COc1ccc(/C=C/c2onc3c(=O)n(C)nc(-c4ccccc4)c23)cc1 | > 100 | > 100 | > 100 | > 100 | > 100 | > 100 | > 100 | > 100 | > 100 |  |  |  |  |  |  |  |  |  |  | 
16 | NC1=NN(c2ccccc2)C(=O)C1C(=O)C(=O)Nc1ccccc1 (stereo not drawn) | > 100 | > 100 | > 100 | > 100 |  | > 100 | > 100 | > 100 | > 100 |  |  |  |  |  |  |  |  |  |  | 
17 | O=C(O)c1cnc2c(ccc3[nH]cccc32)c1=O | > 100 | > 100 | > 100 | > 100 | > 100 | > 100 | > 100 | > 100 | > 100 |  |  |  |  |  |  |  |  |  |  | 
18 | CCOC(=O)C1CC(=O)C=C2CCCCC21 (stereo not drawn) | > 100 | > 100 | > 100 | > 100 | > 100 | > 100 | > 100 | > 100 | > 100 |  |  |  |  |  |  |  |  |  |  | 
19 | CC(=O)N1c2ccccc2N(C(C)=O)C1c1ccc(C2N(C(C)=O)c3ccccc3N2C(C)=O)[nH]1 | > 100 |  | > 100 | > 100 | > 100 | > 100 | > 100 | > 100 | > 100 |  |  |  |  |  |  |  |  |  |  | 
20 | CCOC(=O)NC(=O)c1cn(CCSCCOC(=O)NCCCCCCNC(=O)OCCSCCn2cc(C(=O)NC(=O)OCC)c(=O)n(C)c2=O)c(=O)n(C)c1=O |  | > 100 | > 100 | > 100 | > 100 | > 100 | > 100 |  |  |  |  |  |  |  |  |  |  |  |  | 
21 | Cn1cnc([N+](=O)[O-])c1Sc1n[nH]c(-c2ccc(Cl)cc2)n1 | 24.9 | 41.7 | 31.6 | 77.8 | 26.5 | 36.7 | 28.4 | 37.3 | 29.8 |  |  |  |  |  |  |  |  |  |  | 
22 | COc1cc2c(cc1OC)[C@@H]1C(=O)c3ccc4c(c3O[C@@H]1CO2)C[C@H](C(C)C)O4 |  | > 46.4 | > 76.8 | > 57.8 | > 76.9 |  | > 100 |  | 12.9 | 0.961 | 9.24 | 3.13 | 10.6 | 0.759 | 16.4 |  |  | > 60.6 | 0.175 | 0.0375
23 | CCn1nc(C2CCN(C(=O)CCO)CC2)nc1-c1cnc(N)c(-c2nnc(C(C)(C)C)o2)n1 | 63.5 | > 100 | > 100 | > 100 | 20.9 |  | > 100 |  | 31.3 | 15.3 | 2.07 | 3.92 | 6.34 | 2.26 | 2.45 |  |  | 0.57 | 0.0731 | 11.5
24 | COc1ccc(Sc2[nH]c(C=O)c3ccccc23)cc1 | 31.8 | 28.8 | 33.1 | > 100 | 33.3 |  | 26.1 |  | 25.5 | 14.3 | 11 | 14.9 | 14.9 | 13.3 | 10.7 |  |  | 30.2 | 9.08 | 12.9
25 | COc1ccc(C2(Cl)C(Cl)(C(F)(F)F)C2(Cl)C(F)(F)F)cc1 (stereo not drawn) |  | 30.4 | 29.2 | 28.1 | 24.6 | 27.1 | 26.4 | 27.4 | 22.1 |  |  |  |  |  |  |  |  |  |  | 
26 | Cc1cccc2c(=O)c3c(sc12)c(NCCCNCCO)nc1ccccc13 | 3.54 | 2.81 | 3.12 | 2.64 | 2.89 |  | 3.17 |  | 3.29 | 1.65 | 1.67 | 1.49 | 1.56 | 1.06 | 1.51 |  |  | 3.5 | 1.57 | 1.78
